Results: US20130338092A1, “COMPOUNDS AND METHODS FOR TARGETING LEUKEMIC STEM CELLS” (The Broad Institute, Inc., priority 2011, published 2013)
pIC50: −log10 of the molar value. Entries after “also recorded” stand apart in the source; their conditions may differ. Where two headings read alike, the source gives them in different places.

Experiments:
[1] = system: LSC-enriched leukemia cells (MLL-AF9); assay: Leukemia coculture assay on primary MSC stroma (cobblestoning readout); format: cell-based, murine; conditions: for pIC50: Mus musculus; for leukemia-selective activity in coculture vs normal HSPCs: primary MSC stroma
Protocol: Whole bone marrow were harvested from C57/B16 actin-dsRed mice (006051, Jackson Labs), subjected to red blood cell lysis (Qiagen), then granulocyte-macrophage progenitors (GMPs) were isolated by Fluorescence-activated cell sorting (FACsAria, Becton Dickinson). GMPs were spinfected twice (2500 rpm, 90 min, 37 C) in the presence of mIL3 (10 ng/ml, Peprotech), mIL6 (10 ng/ml, Peprotech), and mSCF (10 ng/ml, Peprotech) with pMSCV-MLL-AF9-Neo virus then transplanted into lethally irradiated C57/B16 recipients. After disease onset, the spleens were harvested and transplanted into sublethally irradiated secondary recipients. Subsequent transplantation of bulk spleen cells from leukemic secondary mice was repeated twice to generate leukemic GMPs from quaternary transplant leukemic mouse bone marrow.
Long bones and hips from moribund leukemic mice were harvested, cleaned, crushed and sequentially passed through 100 and 70 μM filters (Falcon). The cells were RBC lysed (Qiagen) and stained in PBS+2% FBS (Omega). Antibodies included lineage markers CD4, CD8, Gr1, Mac1, IL-7R, and Ter119 (Caltag), c-kit (17-1172-83, eBioscience), Sca-1 (11-5981-82, eBioscience), CD34 (11-0341-85, eBioscience), and CD16/32 (25-0161-82, eBioscience). Hoechst 33258 (H21491, Invitrogen) was also used, to identify live cells. Cells were sorted on a FacsAria II (Becton Dickinson).
The humerii, tibiae, ilia, femurs, and spine were isolated from actin-GFP mice (000329, Jackson Lab) crushed using a mortar and pestle, washed in phosphate-buffered saline (PBS) without magnesium and calcium (Gibco) with 0.5% fetal bovine serum (FBS) (HyClone) and filtered through a 70-μm filter. Red blood cell lysis was performed with ammonium-chloride/potassium-chloride (ACK) lysing buffer (Lonza), the cells were resuspended in α-MEM (StemCell Technologies), 20% FBS (HyClone) and 1× Pen-Strep (CellGro), plated in 25 ml in 150-cm^2 tissue-culture flasks (three per mouse), and incubated at 33° C. with 5% CO2. After 2-3 days, the medium was replaced with fresh α-MEM with 20% FBS. After 8-14 days, the cells were rinsed, split by trypsinization (CellGro), pooled, filtered through a 70 μm filter, replated at 3-4 million cells per 150-cm^2 tissue-culture flask, and grown at 33° C. with 5% CO2 for 3-4 days until nearly confluent. The cells were trypsinized, filtered, and resuspended in 0.5% FBS in PBS with biotin-conjugated anti-mouse CD105 antibody (eBioscience) for 15-30 minutes at room temperature. The CD105-labeled cells were incubated with Dynabead M-280 streptavidin-linked magnetic beads (Invitrogen) for 15-30 minutes at 4° C. with agitation and isolated using magnetic separation and rinsed once. The CD105^+ cell fraction was replated at 1-2 million cells per 150-cm^2 tissue-culture flask and incubated at 33° C. with 5% CO2 for 2-3 days.
The MSCs were trypsinized, filtered, diluted in phenol-red-free alpha-MEM with 20% FBS, and plated (30 μl for a total of 2000 cells per well) on 384-well clear-bottomed black tissue-culture treated plate (3712, Corning) pretreated with fibronectin (Millipore). Plate covers (VWR) were added, the plates were spun and at 500 with slow braking, and the cells were incubated at room temperature for 60-90 minutes before incubation at 33° C. with 5% CO2 for 3 days prior to hematopoietic cell plating. […]

[2] = system: human AML cell lines (U937, THP-1, NOMO-1, SKM-1, NB4, and OCI-AML3); assay: AML cell line screen (CellTiter-Glo); format: cell-based; conditions: for pIC50: Homo sapiens, AML cell line screens, read-out: IC50s across 6 cell lines
Protocol: Nomo-1, THP-1, SKM-1, NB4, and U937 cell lines were grown in RPMI (12-702F, BioWhittaker), 10% FBS (10082-147, Gibco), and 1% Pen-Strep (15140-122, Gibco) and OCI-AML3 was grown in α-MEM (36453, Stem Cell Technologies), 10% FBS (10082-147, Gibco), and 1% Pen-Strep (15140-122, Gibco). 3000 cells were plated in each well in 30 μl in white, 384 well plates (3570, Corning) and 16 hours later 100 nl of the appropriate compound was added to each well. 72 hours later the plates were cooled to room temperature and 30 μl of CellTiterGlo reagent (G7570, Promega) diluted 1:1 in PBS was added to each well and the plates were analyzed using an Envision (Perkin Elmer).
First, a traditional small molecule screen was performed on six human AML cell lines (U937, THP-1, NOMO-1, SKM-1, NB4, and OCI-AML3), two of which (NOMO-1, THP-1) contain the same oncogene (MLL-AF9) used to generate the primary leukemia cells utilized in our coculture system. The cell lines were grown in isolation under standard conditions, treated with the 160 compounds at 8-point dose, and three days later the viability of each well was quantified using CellTiter-Glo reagent. The IC50s from these AML cell line screens were then compared to the IC50s from the coculture screens. […] As discussed, the existence of such differentially-active compounds is consistent with our hypothesis that coculturing can expand the pool of therapeutically promising compounds identified in high throughput format.

normal HSPCs = assay: Normal HSPC coculture on primary MSC stroma; conditions: Mus musculus
Protocol: The material was cleaned, crushed and sequentially passed through 100 and 70 μM filters (Falcon). […] The biotin-labeled cells were spun down, resuspended in 0.5% FBS in PBS, and incubated for 15-30 minutes at 4° C. with agitation with 1 mL of Dynabead M-280 streptavidin-linked magnetic beads per 4 mice. The bead-linked cells were depleted using magnetic separation and rinsed once. The lineage- and CD48-depleted cell fraction was labeled with streptavidin-APC-Cy7 antibody from BD Biosciences and c-kit-APC, Sca-1-FITC, CD48-Pacific Blue, and CD150 PE-Cy7 antibodies from eBioscience. DsRed-positive lineage-Sca-1+c-kit+CD48− HSCs were sorted using a FACS DiVa or FACS ARIA (BD Biosciences).
A total of 20 μL of 20 μg/mL fibronectin (Millipore) in PBS was added to each well of a 384-well clear-bottomed black tissue-culture treated plate (Corning) and incubated for 30-120 minutes at 33° C. or 37° C. […] The fibronectin solution was removed from each well using a 24-channel wand aspirator; then 30 μL of BMSC solution was added to plate 2000 BMSCs/well. […] Each plate was covered with a sterile rayon breathable membrane (VWR) and plastic lid, and then spun at 500 rpm (approximately 60× gravity) with slow braking. The plates were incubated at room temperature for 60-90 minutes before incubation at 33° C. with 5% CO2 for 3 days prior to HSC addition.
The sorted HSCs, SLAMs and progenitor cells were resuspended in phenol-red free alpha-MEM with 20% FBS and diluted to 10,000 cells/mL. A total of 20 μL of cell solution containing 200 hematopoietic cells was added to each well using a multichannel pipettor or liquid-dispensing system. Each plate was covered with a sterile rayon breathable membrane (VWR) and plastic lid, and then spun at 500 rpm (approximately 60×gravity) with slow braking. The plates were incubated at room temperature for 60-90 minutes before incubation at 33° C. with 5% CO2 overnight prior to compound or cytokine addition.
Image analysis was performed using MetaXpress software from MDC and CellProfiler software from the Broad Institute of Harvard and MIT.
Compound addition and incubation was performed as described for the LSC coculture screen above, but without a media change or readdition of the compound.
The selected set was screened in 8-point dose against both normal HSPCs with a high number of replicates (6) and LSC-enriched leukemia cells, each cocultured on primary MSCs.

[3] = system: primary CD34+ cells from normal human cord blood; assay: Human CD34+ CAFC assay, normal cells; conditions: 1.25 μM to 10 μM, 18 hours exposure
Protocol: Samples were centrifuged over Ficoll-Paque PLUS (GE Heathcare) step gradient (2000×g for 30 min in 50 ml tubes) to obtain mononuclear cells and then CD34^+ cells were selected with immunomagnetic beads (MACS Cell Separation, Miltenyi Biotec, Auburn, Calif.), except in one case, NPM1 mutation, which was CD34^− by flow cytometry and mononuclear cells were used. 50,000 cells were placed into 12.5 cm^2 flasks (Becton Dickinson Labware, Franklin Lakes, N.J.) in co-culture with the MS-5 mouse bone marrow-derived stromal cell line (kindly provided by Dr. Itoh, Dept. of Biology, Niigata University, Japan) and DMSO control and the number of final cobblestones was later read. The number of cells needed to form one cobblestone was then placed in triplicate for each sample with each drug at serial drug dilutions from 10 μM to 0.63 μM as well as with DMSO 0.5% for control purposes and incubated overnight with Iscove's modified Dulbecco's medium (IMDM, in house media preparation laboratory)+20% fetal calf serum (FCS, Atlanta Biologicals, Lawrenceville, Ga.) with glutamine (2 mM/ml, in house media preparation laboratory), monothioglycerol (MTG, 10 nM/ml, Sigma Cell Culture, St. Louis Mo.), c-Kit ligand (20 ng/ml, Amgen, Thousand Oaks, Calif.), Flt ligand (20 ng/ml, Imclone, Bridgewater, N.J.), TPO (20 ng/ml, Amgen) and IL-3 (20 ng/ml, Amgen). […]
(§1) The cells were treated with compound or DMSO carrier control at four doses (ranging from 1.25 μM to 10 μM) in triplicate for 18 hours, washed thoroughly, then plated onto human stromal MS-5 monolayers (Itoh, K., Tezuka, H., Sakoda, H., Konno, M., Nagata, K., Uchiyama, T., Uchino, H., and Mori, K. J. (1989). Exp Hematol 17, 145-153.) and maintained in coculture with one subsequent half media change. After 5 weeks (2 weeks for the FLT3-ITD sample (Moore, M. A., Dorn, D. C., Schuring a, J. J., Chung, K. Y., and Morrone, G. (2007). Exp Hematol 35, 105-116.)), cobblestone formation was determined, and dose-response curves against the 7 cell types were generated for each compound.

[4] = system: CD34+ cells from primary human leukemia samples; assay: Human CD34+ CAFC assay, leukemia samples; format: cell-based; conditions: 1.25 μM to 10 μM, 18 hours exposure, read at 5 weeks (2 weeks FLT3-ITD)
Protocol: Samples were centrifuged over Ficoll-Paque PLUS (GE Heathcare) step gradient (2000×g for 30 min in 50 ml tubes) to obtain mononuclear cells and then CD34^+ cells were selected with immunomagnetic beads (MACS Cell Separation, Miltenyi Biotec, Auburn, Calif.), except in one case, NPM1 mutation, which was CD34^− by flow cytometry and mononuclear cells were used. 50,000 cells were placed into 12.5 cm^2 flasks (Becton Dickinson Labware, Franklin Lakes, N.J.) in co-culture with the MS-5 mouse bone marrow-derived stromal cell line (kindly provided by Dr. Itoh, Dept. of Biology, Niigata University, Japan) and DMSO control and the number of final cobblestones was later read. The number of cells needed to form one cobblestone was then placed in triplicate for each sample with each drug at serial drug dilutions from 10 μM to 0.63 μM as well as with DMSO 0.5% for control purposes and incubated overnight with Iscove's modified Dulbecco's medium (IMDM, in house media preparation laboratory)+20% fetal calf serum (FCS, Atlanta Biologicals, Lawrenceville, Ga.) with glutamine (2 mM/ml, in house media preparation laboratory), monothioglycerol (MTG, 10 nM/ml, Sigma Cell Culture, St. Louis Mo.), c-Kit ligand (20 ng/ml, Amgen, Thousand Oaks, Calif.), Flt ligand (20 ng/ml, Imclone, Bridgewater, N.J.), TPO (20 ng/ml, Amgen) and IL-3 (20 ng/ml, Amgen). Cells were then washed to remove the drugs and placed into 96 well cell culture plates (Becton Dickinson) with α-MEM (in house media preparation laboratory)+12.5% FCS+12.5% horse serum (Gemini Bio-products, West Sacramento, Calif.) with glutamine, MTG, hydrocortisone (1 nM/ml, Sigma) and IL-3 in co-culture with MS-5 stromal cells. […] The same procedure was followed with normal CD34+ cells obtained from cord blood.
as §1

[5] = system: primary leukemia cocultures; assay: Mevalonolactone rescue experiment; format: cell-based, murine; conditions: 2 mM mevalanolactone with 1 μM lovastatin, 5 days
Protocol: Primary leukemia cocultures were plated as described, and treated with 2 mM mevalanolactone and/or 1 μM lovastatin as shown, for 5 days. Total leukemia cells were counted using MetaXpress software from MDC. Carriers were controlled for across all treatments. The viability of the stroma was assessed using stromal monolayers grown alone and treated in parallel, with the same readout described in the stromal toxicity screen here.

[6] = system: LSC-enriched leukemia cells on OP9 stromal cells; assay: Leukemia coculture assay on OP9 stroma (primary screen); format: cell-based, murine; conditions: 5 μM
Protocol: Plate covers were re-added and the plates were placed in the incubator for 24 hours. The plate covers were removed, 100 nl of compound in dimethyl sulfoxide (DMSO) (final concentration 5 μM in 0.2% DMSO) was added to the appropriate wells using a CyBi-Well Vario (CyBio) the plate covers were replaced, and the plates were placed in the incubator for 3 days. Plate covers were removed, the media was aspirated from each plate, 50 μl of fresh media (50/50 coculture and OP9 conditioned media mix) was added and another 100 nl of compound was added to the appropriate wells. The plates were re-covered and placed in the incubator for 2 days. At this point, the plates were imaged using a IX Microscope (Molecular Devices) at 10× magnification at 9 sites per well in both the GFP and dsRed channels. Images were stored on the Broad Institute server for future analysis. […]
Briefly, primary dsRed^+ leukemia cells enriched for LSCs were isolated by flow cytometry and cocultured on GFP^+ OP9 stromal monolayers, treated with 5 μM of compound (to a final concentration of 0.2% DMSO), and imaged 5 days later by automated microscopy (dsRed channel for leukemia, and GFP channel for stroma) (FIG. 1). The stored images were analyzed for levels of cobblestoning as described herein.

pIC50 ([1]; MLL-AF9, LSCs on primary MSC stroma, 8-point dose, read-out: Leukemia IC50) | Compound | leukemia-selective activity in coculture vs normal HSPCs [1] | activity against AML cell lines [2] | pIC50 [2] | pIC50 (normal HSPCs; read-out: Normal IC50, HSPCs on primary MSC stroma, 8-point dose) | toxicity against normal primary CD34+ cells (human CAFC) [3] | leukemia cobblestone inhibition (human CAFC) [4] | rescue of anti-leukemia effect of lovastatic acid [5] | hit in primary screen [6] | hit in primary screen ([6]; listed as L-744832) | pIC50 ([1]; MLL-AF9, read-out: Leukemia IC50) | pIC50 (normal HSPCs; read-out: Normal IC50)
6.33 | COC(=O)Nc1nc2cc(SC(C)C)ccc2[nH]1 [Methiazole] | leukemia-selective activity | strong activity | > 6.20 | < 4.70 | neither compound showed toxicity | leukemia cobblestone inhibition was observed across all six primary leukemia samples | – | – | – | – | –
– | C[C@@]1(O)CCOC(=O)C1 [mevalonolactone] | – | – | – | – | – | – | rescues the anti-leukemia effect of lovastatin; also recorded: rescued the anti-leukemia effects of lovastatic acid | – | – | – | –
– | CC[C@H](C)[C@@H](COC(Cc1ccccc1)C(=O)N[C@@H](CCS(C)(=O)=O)C(=O)OC(C)C)NC[C@@H](N)CS (stereo partly drawn) [L-744, 832] | – | – | – | – | – | – | – | independently scored | independently hit | – | –
– | CCCCc1ccc2[nH]c(NC(=O)OC)nc2c1 [Parbendazole] | leukemia-selective activity | strong activity | > 6.20 | – | neither compound showed toxicity | leukemia cobblestone inhibition was observed across all six primary leukemia samples | – | – | – | 7.12 | < 4.70
